Experimental data published in publication PMC10504015, “Design, synthesis, and enzyme inhibition evaluation of some novel Mono- and Di-O-β-D-Glycopyranosyl Chalcone analogues with molecular docking studies” (Turkish Journal of Chemistry, 2022).

How the values were obtained:
Type in all cases: biochemical
[1] = target: tyrosinase (Agaricus bisporus, UniProt C7FF04); assay: Tyrosinase from mushroom inhibitory effect (L-DOPA substrate, 475 nm); conditions: phosphate buffer pH 6.8, read-out: IC50 on tyrosinase (Tyr)
tyrosinase, sequence (C7FF04 1-392 limits assumed): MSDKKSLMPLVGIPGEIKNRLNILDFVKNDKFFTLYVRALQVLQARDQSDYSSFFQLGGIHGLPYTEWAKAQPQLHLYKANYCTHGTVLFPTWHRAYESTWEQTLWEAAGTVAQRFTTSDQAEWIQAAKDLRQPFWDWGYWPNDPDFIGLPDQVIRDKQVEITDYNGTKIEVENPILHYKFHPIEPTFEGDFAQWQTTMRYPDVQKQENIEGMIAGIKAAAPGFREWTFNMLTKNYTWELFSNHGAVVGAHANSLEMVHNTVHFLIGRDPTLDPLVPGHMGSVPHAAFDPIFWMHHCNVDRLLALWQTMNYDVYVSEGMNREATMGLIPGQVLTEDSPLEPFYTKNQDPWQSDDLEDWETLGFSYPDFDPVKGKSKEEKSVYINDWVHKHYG
Protocol: The tyrosinase inhibitory effects of the newly synthesized compounds were performed using microplate reader with minor modifications according to the standard method. […] The activity of tyrosinase solution was adjusted as 250 U/mL in phosphate buffer (pH 6.8, 100 mM). For each wells, 100 μL buffer (pH 6.8, 100 mM), 20 μL of tyrosinase (0.2 U/mL), and 20 μL of compounds were added and incubated 20 min. After incubation, 20 μL of 3,4-dihydroxy-L-phenylalanine (3 mM) was pipetted into wells. Absorbance was measured at 475 nm.

[2] = target: AChE (Electrophorus electricus, UniProt O42275); conditions: electric eel AChE, Tris-HCl buffer pH 8.0
AChE, sequence (O42275 24-633): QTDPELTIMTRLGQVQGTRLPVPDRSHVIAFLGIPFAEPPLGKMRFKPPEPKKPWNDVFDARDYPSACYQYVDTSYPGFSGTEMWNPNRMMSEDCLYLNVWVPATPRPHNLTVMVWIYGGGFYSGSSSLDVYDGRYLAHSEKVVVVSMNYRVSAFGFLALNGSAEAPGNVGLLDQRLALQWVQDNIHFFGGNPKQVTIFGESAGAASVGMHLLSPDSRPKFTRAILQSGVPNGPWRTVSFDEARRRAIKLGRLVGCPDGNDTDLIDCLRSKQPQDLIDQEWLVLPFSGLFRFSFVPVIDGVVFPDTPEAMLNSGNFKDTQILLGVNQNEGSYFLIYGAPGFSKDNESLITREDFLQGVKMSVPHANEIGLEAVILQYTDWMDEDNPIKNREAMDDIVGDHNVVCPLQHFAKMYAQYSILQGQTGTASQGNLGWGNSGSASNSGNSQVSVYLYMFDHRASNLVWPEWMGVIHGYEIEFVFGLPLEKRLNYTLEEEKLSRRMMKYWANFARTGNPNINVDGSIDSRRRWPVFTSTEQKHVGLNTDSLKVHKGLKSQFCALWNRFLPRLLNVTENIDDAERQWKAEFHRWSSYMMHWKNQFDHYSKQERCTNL
Protocol: The AChE from electric eel inhibitory effects of the newly synthesized compounds were performed using microplate reader with minor modification according to the standard method. […] The activity of AChE solution was adjusted as 0.2 U/mL in Tris-HCl buffer (pH 8.0, 50 mM). For each wells, 50 μL buffer (pH 8.0, 50 mM), 125 μL 5,5-dithio-bis(2-nitrobenzoic)acid (3 mM), 25 μL of AChE (0.2 U/mL) and 25 μL of compounds were added and incubated 20 min at room temperature. After incubation, 25 μL of acetylthiocholine iodide (15 mM) was pipetted into wells. Absorbance was measured at 412 nm.

[3] = target: α-glycosidase; assay: α-Glycosidase inhibitory effect (p-nitrophenyl-α-D glucopyranoside substrate); conditions: enzyme 2 U/mL, phosphate buffer pH 6.8, 37 °C; nd: not detected
Protocol: α-glycosidase inhibitory effect of the newly synthesized samples that were solvated in DMSO was performed with some minor modifications of the standard method. The activity degree of the enzyme solution was adjusted as 2 U/mL in phosphate buffer (pH 6.8, 50 mM). For each test tube, 150 μL of the sample, 150 μL of the enzyme (2 U/mL), and 150 μL of buffer were pipetted. After the incubation for 15 min at 37 °C, 150 μL of p-nitrophenyl-α-D glucopyranoside (20 mM, Sigma-Aldrich) was added and then their absorbance was monitored for 20 min at 400 nm.

Row | Compound | IC50 [1] [µM] | IC50 [2] [µM] | IC50 [3] [µM]
1 | COc1cc(C(=O)/C=C/c2ccccc2O)ccc1O[C@@H]1O[C@H](CO)[C@@H](O)[C@H](O)[C@H]1O [7a, (2E)-1-(4-O-β-D-glucopyranosyl-3-methoxyphenyl)-3-(2-hydroxyphenyl)prop-2-en-1-one] | > 100 | > 100 | 
2 | COc1cc(C(=O)/C=C/c2cccc(O)c2)ccc1O[C@@H]1O[C@H](CO)[C@@H](O)[C@H](O)[C@H]1O [7b, (2E)-1-(4-O-β-D-glucopyranosyl-3-methoxyphenyl)-3-(3-hydroxyphenyl)prop-2-en-1-one] | 82.5 ± 4.5 | > 100 | 
3 | COc1cc(C(=O)/C=C/c2ccc(O)cc2)ccc1OC1OC(CO)C(O)C(O)C1O [7c, (2E)-1-(4-O-β-D-glucopyranosyl-3-methoxyphenyl)-3-(4-hydroxyphenyl)prop-2-en-1-one] | 11.1 ± 0.55 | > 100 | 
4 | COc1cc(C(=O)/C=C/c2ccccc2O[C@@H]2O[C@H](CO)[C@@H](O)[C@H](O)[C@H]2O)ccc1O[C@@H]1O[C@H](CO)[C@@H](O)[C@H](O)[C@H]1O [8a, (2E)-1-(4-O-β-D-glucopyranosyl-3-methoxyphenyl)-3-(2-O-β-D-glucopyranosylphenyl)-prop-2-en-1-one] | > 100 | > 100 | 
5 | COc1cc(C(=O)/C=C/c2cccc(OC3OC(CO)C(O)C(O)C3O)c2)ccc1OC1OC(CO)C(O)C(O)C1O [8b, (2E)-1-(4-O-β-D-glucopyranosyl-3-methoxyphenyl)-3-(3-O-β-D-glucopyranosylphenyl)-prop-2-en-1-one] | > 100 | 81.8 ± 3.4 | 
6 | COc1cc(C(=O)/C=C/c2ccc(O[C@@H]3O[C@H](CO)[C@@H](O)[C@H](O)[C@H]3O)cc2)ccc1O[C@@H]1O[C@H](CO)[C@@H](O)[C@H](O)[C@H]1O [8c, (2E)-1-(4-O-β-D-glucopyranosyl-3-methoxyphenyl)-3-(4-O-β-D-glucopyranosylphenyl)-prop-2-en-1-one] | 53.6 ± 2.31 | > 100 | 
7 | COc1ccccc1/C=C/C(=O)c1cc(O)cc(O[C@@H]2O[C@H](CO)[C@@H](O)[C@H](O)[C@H]2O)c1 [16a, (2E)-1-(3-O-β-D-glucopyranosyl-5-hyroxyphenyl)-3-(2-methoxyphenyl)-prop-2-en-1-one] | > 100 | > 100 | 12870 ± 90
8 | COc1cccc(/C=C/C(=O)c2cc(O)cc(O[C@@H]3O[C@H](CO)[C@@H](O)[C@H](O)[C@H]3O)c2)c1 [16b, (2E)-1-(3-O-β-D-glucopyranosyl-5-hyroxyphenyl)-3-(3-methoxyphenyl)-prop-2-en-1-one] | > 100 | > 100 | 6600 ± 50
9 | COc1ccc(/C=C/C(=O)c2cc(O)cc(O[C@@H]3O[C@H](CO)[C@@H](O)[C@H](O)[C@H]3O)c2)cc1 [16c, (2E)-1-(3-O-β-D-glucopyranosyl-5-hydroxyphenyl)-3-(4-methoxyphenyl)-prop-2-en-1-one] | > 100 | > 100 | 6800 ± 60
10 | COc1ccccc1/C=C/C(=O)c1cc(OC2OC(CO)C(O)C(O)C2O)cc(OC2OC(CO)C(O)C(O)C2O)c1 [17a, (2E)-1-(3,5-di-O-β-D-glucopyranosylphenyl)-3-(2-methoxyphenyl)-prop-2-en-1-one] | > 100 | > 100 | 23600 ± 900
11 | COc1cccc(/C=C/C(=O)c2cc(OC3OC(CO)C(O)C(O)C3O)cc(OC3OC(CO)C(O)C(O)C3O)c2)c1 [17b, (2E)-1-(3,5-di-O-β-D-glucopyranosylphenyl)-3-(3-methoxyphenyl)-prop-2-en-1-one] | > 100 | > 100 | 16600 ± 620
12 | COc1ccc(/C=C/C(=O)c2cc(OC3OC(CO)C(O)C(O)C3O)cc(OC3OC(CO)C(O)C(O)C3O)c2)cc1 [17c, (2E)-1-(3,5-di-O-β-D-glucopyranosylphenyl)-3-(4-methoxyphenyl)-prop-2-en-1-one] | 34.4 ± 1.74 | > 100 | 16300 ± 630
